PubChem BioAssay AID1963976 (Molecular Pharmacology Branch, DTP, NCI, 2024)
Values joined by “and” are separate entries in the source; they are usually repeats but may differ in a detail not shown here. Equal entries are not always repeated.

Tested on: 435261-313-R-J1-PDC tumor spheroid viability
Assay: Anticancer human tumor 435261-313-R-J1-PDC patient-derived colon adenocarcinoma cell line growth inhibition [PI3K]
Details: spheroids with HUVEC and MSC; for viability, T/C: stronger effect = lower value
Outline: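 Agents were dosed from a top concentration near clinical Cmax (otherwise 10 microM) in half-log decrements, alone or combined with PI3K inhibitors. The spheroids contain tumor cells plus endothelial (HUVEC) and MSC stroma; viability is measured.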

[1] = curve of first compound, second compound 0.0316 µM
[2] = curve of first compound, second compound 0.1 µM
[3] = curve of first compound, second compound 0.316 µM
[4] = curve of first compound, second compound 1 µM
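Note: spheroids exposed to compounds for 7 days.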

With `Cn1cnc2c(F)c(Nc3ccc(Br)cc3Cl)c(C(=O)NOCCO)cc21` + COc1c(OCCCN2CCOCC2)ccc2c3n(c(=NC(=O)c4cnc(N)nc4)nc12)CCN3 the IC50 (curve of first compound, second compound 0.00316 µM) was < 9.49 nM, the IC50 (curve of first compound, second compound 0.01 µM) was < 9.49 nM and the IC50 [1] was < 9.49 nM. For the same molecule, the IC50 [2] was < 9.49 nM, the IC50 [3] was < 9.49 nM and the IC50 [4] was < 9.49 nM. For the same molecule, the viability, T/C (second compound 0.00316 µM, first compound 0.00949 µM) was 29.7%, the viability, T/C (second compound 0.00316 µM, first compound 0.03 µM) was 25.4% and the viability, T/C (second compound 0.00316 µM, first compound 0.0949 µM) was 20.5%. For the same molecule, the viability, T/C (second compound 0.00316 µM, first compound 0.3 µM) was 19%, the viability, T/C (second compound 0.00316 µM, first compound 0.949 µM) was 19.1% and the viability, T/C (second compound 0.00316 µM, first compound 3 µM) was 14.2%. For the same molecule, the viability, T/C (second compound 0.01 µM, first compound 0.00949 µM) was 24.2%, the viability, T/C (second compound 0.01 µM, first compound 0.03 µM) was 20.6% and the viability, T/C (second compound 0.01 µM, first compound 0.0949 µM) was 22.4%. For the same molecule, the viability, T/C (second compound 0.01 µM, first compound 0.3 µM) was 17.8%, the viability, T/C (second compound 0.01 µM, first compound 0.949 µM) was 16.4% and the viability, T/C (second compound 0.01 µM, first compound 3 µM) was 9.17%. For the same molecule, the viability, T/C (second compound 0.0316 µM, first compound 0.00949 µM) was 30.9%, the viability, T/C (second compound 0.0316 µM, first compound 0.03 µM) was 16.9% and the viability, T/C (second compound 0.0316 µM, first compound 0.0949 µM) was 14.4%. The viability, T/C (second compound 0.0316 µM, first compound 0.3 µM) was 11.1%, the viability, T/C (second compound 0.0316 µM, first compound 0.949 µM) was 11.4% and the viability, T/C (second compound 0.0316 µM, first compound 3 µM) was 3.71%. For the same molecule, the viability, T/C (second compound 0.1 µM, first compound 0.00949 µM) was 8.18%, the viability, T/C (second compound 0.1 µM, first compound 0.03 µM) was 7.27% and the viability, T/C (second compound 0.1 µM, first compound 0.0949 µM) was 7.24%. The viability, T/C (second compound 0.1 µM, first compound 0.3 µM) was 6.07%, the viability, T/C (second compound 0.1 µM, first compound 0.949 µM) was 3.14% and the viability, T/C (second compound 0.1 µM, first compound 3 µM) was 0.52%. The viability, T/C (second compound 0.316 µM, first compound 0.00949 µM) was 2.98%, the viability, T/C (second compound 0.316 µM, first compound 0.03 µM) was 2.65% and the viability, T/C (second compound 0.316 µM, first compound 0.0949 µM) was 1.65%. For the same molecule, the viability, T/C (second compound 0.316 µM, first compound 0.3 µM) was 0.71%, the viability, T/C (second compound 0.316 µM, first compound 0.949 µM) was 0.32% and the viability, T/C (second compound 0.316 µM, first compound 3 µM) was 0.75%. For the same molecule, the viability, T/C (second compound 1 µM, first compound 0.00949 µM) was 0.94%, the viability, T/C (second compound 1 µM, first compound 0.03 µM) was 0.62% and the viability, T/C (second compound 1 µM, first compound 0.0949 µM) was 0.53%. For the same molecule, the viability, T/C (second compound 1 µM, first compound 0.3 µM) was 0.36%, the viability, T/C (second compound 1 µM, first compound 0.949 µM) was 0.26% and the viability, T/C (second compound 1 µM, first compound 3 µM) was 0.49%.

For `Cn1cnc2c(F)c(Nc3ccc(Br)cc3Cl)c(C(=O)NOCCO)cc21`, the viability, T/C (compound 0.00949 µM) was 33.8% and 34.9% and 45.8%, the viability, T/C (compound 0.03 µM) was 32.3% and 27.6% and 36% and the viability, T/C (compound 0.0949 µM) was 12.5% and 23.4% and 29.8%. For the same molecule, the viability, T/C (compound 0.3 µM) was 30.7% and 22.9% and 24.5%, the viability, T/C (compound 0.949 µM) was 16.1% and 18.4% and 20.9% and the viability, T/C (compound 3 µM) was 9.65% and 10.9% and 16.8%. The IC50 (curve of compound) was < 9.49 nM.

For `COc1c(OCCCN2CCOCC2)ccc2c3n(c(=NC(=O)c4cnc(N)nc4)nc12)CCN3`, the viability, T/C (compound 0.0316 µM) was 29% [middle of 6 runs], the viability, T/C (compound 0.1 µM) was 15.8% [middle of 6 runs] and the viability, T/C (compound 0.316 µM) was 8.17% [middle of 6 runs]. The viability, T/C (compound 1 µM) was 4.83% [middle of 6 runs] and the IC50 (compound alone, run of 06/13/2023) was 13.3 nM [middle of 6 runs].

`CC(=O)c1c(C)c2cnc(Nc3ccc(N4CCNCC4)cn3)nc2n(C2CCCC2)c1=O` + CC(Nc1ncnc2nc[nH]c12)c1cc2cccc(Cl)c2c(=O)n1-c1ccccc1 was tested, and the IC50 [1] was > 100 nM, the IC50 [2] was > 100 nM and the IC50 [3] was > 100 nM. For the same molecule, the IC50 [4] was > 100 nM, the IC50 (curve of first compound, second compound 3.16 µM) was > 100 nM and the IC50 (curve of first compound, second compound 10 µM) was 34.5 nM. For the same molecule, the viability, T/C (second compound 0.0316 µM, first compound 0.000316 µM) was 101%, the viability, T/C (second compound 0.0316 µM, first compound 0.001 µM) was 125% and the viability, T/C (second compound 0.0316 µM, first compound 0.00316 µM) was 74.8%. It also gave a viability, T/C (second compound 0.0316 µM, first compound 0.01 µM) of 94%, a viability, T/C (second compound 0.0316 µM, first compound 0.0316 µM) of 107% and a viability, T/C (second compound 0.0316 µM, first compound 0.1 µM) of 84.1%. It also gave a viability, T/C (second compound 0.1 µM, first compound 0.000316 µM) of 77.4%, a viability, T/C (second compound 0.1 µM, first compound 0.001 µM) of 84% and a viability, T/C (second compound 0.1 µM, first compound 0.00316 µM) of 94.5%. It also gave a viability, T/C (second compound 0.1 µM, first compound 0.01 µM) of 101%, a viability, T/C (second compound 0.1 µM, first compound 0.0316 µM) of 106% and a viability, T/C (second compound 0.1 µM, first compound 0.1 µM) of 64.9%. For the same molecule, the viability, T/C (second compound 0.316 µM, first compound 0.000316 µM) was 105%, the viability, T/C (second compound 0.316 µM, first compound 0.001 µM) was 72.7% and the viability, T/C (second compound 0.316 µM, first compound 0.00316 µM) was 101%. For the same molecule, the viability, T/C (second compound 0.316 µM, first compound 0.01 µM) was 90.1%, the viability, T/C (second compound 0.316 µM, first compound 0.0316 µM) was 119% and the viability, T/C (second compound 0.316 µM, first compound 0.1 µM) was 69%. The viability, T/C (second compound 1 µM, first compound 0.000316 µM) was 81.7%, the viability, T/C (second compound 1 µM, first compound 0.001 µM) was 57.1% and the viability, T/C (second compound 1 µM, first compound 0.00316 µM) was 56.6%. For the same molecule, the viability, T/C (second compound 1 µM, first compound 0.01 µM) was 92.3%, the viability, T/C (second compound 1 µM, first compound 0.0316 µM) was 86.6% and the viability, T/C (second compound 1 µM, first compound 0.1 µM) was 62%. For the same molecule, the viability, T/C (second compound 3.16 µM, first compound 0.000316 µM) was 52.9%, the viability, T/C (second compound 3.16 µM, first compound 0.001 µM) was 79% and the viability, T/C (second compound 3.16 µM, first compound 0.00316 µM) was 40.8%. It also gave a viability, T/C (second compound 3.16 µM, first compound 0.01 µM) of 63.1%, a viability, T/C (second compound 3.16 µM, first compound 0.0316 µM) of 63.3% and a viability, T/C (second compound 3.16 µM, first compound 0.1 µM) of 41.3%. The viability, T/C (second compound 10 µM, first compound 0.000316 µM) was 44.5%, the viability, T/C (second compound 10 µM, first compound 0.001 µM) was 54% and the viability, T/C (second compound 10 µM, first compound 0.00316 µM) was 48.2%. For the same molecule, the viability, T/C (second compound 10 µM, first compound 0.01 µM) was 56.1%, the viability, T/C (second compound 10 µM, first compound 0.0316 µM) was 54.6% and the viability, T/C (second compound 10 µM, first compound 0.1 µM) was 32.2%.
